Tests used:
Assay in all cases: Test E pre-/postemergence plant response
Assay type in all cases: in vivo
Settings in all cases: scale 0 to 100
[1] = test system: common mallow (Malva sylvestris)
How it was run: (§1)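 Plants scored visually versus controls on a 0–100 scale (100 = complete control) 14 to 21 days after treatment in the greenhouse. Test chemicals in a surfactant-containing non-phytotoxic solvent were applied to soil preemergence or to 1- to 4-leaf plants, 2–18 cm tall.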

[2] = test system: common purslane (Portulaca oleracea)
How it was run: as §1

[3] = test system: guineagrass (Panicum maximum)
How it was run: as §1

[4] = test system: pitted morningglory (Ipomoea lacunosa)
How it was run: as §1

[5] = test system: goosegrass (Eleusine indica)
How it was run: as §1

[6] = test system: Italian ryegrass (Lolium multiflorum)
How it was run: as §1

[7] = test system: green foxtail (Setaria viridis)
How it was run: as §1

[8] = test system: dallisgrass (Paspalum dilatatum)
How it was run: as §1

[9] = test system: annual bluegrass (Poa annua)
How it was run: as §1

[10] = test system: black mustard (Brassica nigra)
How it was run: as §1

[11] = test system: quackgrass (Elytrigia repens)
How it was run: as §1

[12] = test system: common groundsel (Senecio vulgaris)
How it was run: as §1

[13] = test system: barnyardgrass (Echinochloa crus-galli)
How it was run: as §1

## CCCc1cc(-c2ccc(Cl)cc2)nn1-c1c(O)cnn(C)c1=O [Compound 43]
[1]; 16 g ai/ha, Preemergence
  Plant response rating, Mallow: 0
[1]; 31 g ai/ha, Preemergence
  Plant response rating, Mallow: 0
[1]; 62 g ai/ha, Preemergence
  Plant response rating, Mallow: 0
[1]; Postemergence, 8 g ai/ha
  Plant response rating, Mallow: 0
[1]; Postemergence, 16 g ai/ha
  Plant response rating, Mallow: 0
[1]; Postemergence, 31 g ai/ha
  Plant response rating, Mallow: 0
[1]; Postemergence, 62 g ai/ha
  Plant response rating, Mallow: 0
[2]; 16 g ai/ha, Preemergence
  Plant response rating, Purslane: 0
[2]; 31 g ai/ha, Preemergence
  Plant response rating, Purslane: 0
[2]; 62 g ai/ha, Preemergence
  Plant response rating, Purslane: 0
[2]; Postemergence, 8 g ai/ha
  Plant response rating, Purslane: 0
[2]; Postemergence, 16 g ai/ha
  Plant response rating, Purslane: 0
[2]; Postemergence, 62 g ai/ha
  Plant response rating, Purslane: 0
[3]; 16 g ai/ha, Preemergence
  Plant response rating, Guineagrass: 95
[3]; 31 g ai/ha, Preemergence
  Plant response rating, Guineagrass: 100
[3]; 62 g ai/ha, Preemergence
  Plant response rating, Guineagrass: 100
[3]; Postemergence, 8 g ai/ha
  Plant response rating, Guineagrass: 100
[3]; Postemergence, 16 g ai/ha
  Plant response rating, Guineagrass: 100
[3]; Postemergence, 31 g ai/ha
  Plant response rating, Guineagrass: 100
[3]; Postemergence, 62 g ai/ha
  Plant response rating, Guineagrass: 100
[4]; 16 g ai/ha, Preemergence
  Plant response rating, Morningglory: 0
[4]; 31 g ai/ha, Preemergence
  Plant response rating, Morningglory: 20
[4]; 62 g ai/ha, Preemergence
  Plant response rating, Morningglory: 30
[4]; Postemergence, 8 g ai/ha
  Plant response rating, Morningglory: 0
[4]; Postemergence, 16 g ai/ha
  Plant response rating, Morningglory: 0
[4]; Postemergence, 31 g ai/ha
  Plant response rating, Morningglory: 0
[4]; Postemergence, 62 g ai/ha
  Plant response rating, Morningglory: 0
[5]; 16 g ai/ha, Preemergence
  Plant response rating, Goosegrass: 65
[5]; 31 g ai/ha, Preemergence
  Plant response rating, Goosegrass: 95
[5]; 62 g ai/ha, Preemergence
  Plant response rating, Goosegrass: 98
[5]; Postemergence, 8 g ai/ha
  Plant response rating, Goosegrass: 20
[5]; Postemergence, 16 g ai/ha
  Plant response rating, Goosegrass: 75
[5]; Postemergence, 31 g ai/ha
  Plant response rating, Goosegrass: 75
[5]; Postemergence, 62 g ai/ha
  Plant response rating, Goosegrass: 90
[6]; 16 g ai/ha, Preemergence
  Plant response rating, Ryegrass, Italian: 90
[6]; 31 g ai/ha, Preemergence
  Plant response rating, Ryegrass, Italian: 90
[6]; 62 g ai/ha, Preemergence
  Plant response rating, Ryegrass, Italian: 90
[6]; Postemergence, 8 g ai/ha
  Plant response rating, Ryegrass, Italian: 50
[6]; Postemergence, 16 g ai/ha
  Plant response rating, Ryegrass, Italian: 80
[6]; Postemergence, 31 g ai/ha
  Plant response rating, Ryegrass, Italian: 100
[6]; Postemergence, 62 g ai/ha
  Plant response rating, Ryegrass, Italian: 100
[7]; 16 g ai/ha, Preemergence
  Plant response rating, Foxtail, Green: 25
[7]; 31 g ai/ha, Preemergence
  Plant response rating, Foxtail, Green: 85
[7]; 62 g ai/ha, Preemergence
  Plant response rating, Foxtail, Green: 100
[7]; Postemergence, 8 g ai/ha
  Plant response rating, Foxtail, Green: 75
[7]; Postemergence, 16 g ai/ha
  Plant response rating, Foxtail, Green: 80
[7]; Postemergence, 31 g ai/ha
  Plant response rating, Foxtail, Green: 80
[7]; Postemergence, 62 g ai/ha
  Plant response rating, Foxtail, Green: 98
[8]; 16 g ai/ha, Preemergence
  Plant response rating, Dallisgrass: 40
[8]; 31 g ai/ha, Preemergence
  Plant response rating, Dallisgrass: 80
[8]; 62 g ai/ha, Preemergence
  Plant response rating, Dallisgrass: 90
[8]; Postemergence, 8 g ai/ha
  Plant response rating, Dallisgrass: 0
[8]; Postemergence, 31 g ai/ha
  Plant response rating, Dallisgrass: 20
[8]; Postemergence, 62 g ai/ha
  Plant response rating, Dallisgrass: 50
[9]; 16 g ai/ha, Preemergence
  Plant response rating, Bluegrass: 0
[9]; 31 g ai/ha, Preemergence
  Plant response rating, Bluegrass: 0
[9]; 62 g ai/ha, Preemergence
  Plant response rating, Bluegrass: 0
[9]; Postemergence, 8 g ai/ha
  Plant response rating, Bluegrass: 0
[9]; Postemergence, 16 g ai/ha
  Plant response rating, Bluegrass: 0
[9]; Postemergence, 31 g ai/ha
  Plant response rating, Bluegrass: 0
[9]; Postemergence, 62 g ai/ha
  Plant response rating, Bluegrass: 0
[10]; 16 g ai/ha, Preemergence
  Plant response rating, Mustard, Black: 0
[10]; 31 g ai/ha, Preemergence
  Plant response rating, Mustard, Black: 0
[10]; 62 g ai/ha, Preemergence
  Plant response rating, Mustard, Black: 0
[10]; Postemergence, 8 g ai/ha
  Plant response rating, Mustard, Black: 0
[10]; Postemergence, 16 g ai/ha
  Plant response rating, Mustard, Black: 0
[10]; Postemergence, 31 g ai/ha
  Plant response rating, Mustard, Black: 0
[10]; Postemergence, 62 g ai/ha
  Plant response rating, Mustard, Black: 0
[11]; 16 g ai/ha, Preemergence
  Plant response rating, Quackgrass: 70
[11]; 31 g ai/ha, Preemergence
  Plant response rating, Quackgrass: 80
[11]; 62 g ai/ha, Preemergence
  Plant response rating, Quackgrass: 95
[11]; Postemergence, 8 g ai/ha
  Plant response rating, Quackgrass: 0
[11]; Postemergence, 16 g ai/ha
  Plant response rating, Quackgrass: 0
[11]; Postemergence, 31 g ai/ha
  Plant response rating, Quackgrass: 20
[11]; Postemergence, 62 g ai/ha
  Plant response rating, Quackgrass: 75
[12]; 16 g ai/ha, Preemergence
  Plant response rating, Groundsel: 0
[12]; 31 g ai/ha, Preemergence
  Plant response rating, Groundsel: 0
[12]; 62 g ai/ha, Preemergence
  Plant response rating, Groundsel: 0
[12]; Postemergence, 8 g ai/ha
  Plant response rating, Groundsel: 0
[12]; Postemergence, 16 g ai/ha
  Plant response rating, Groundsel: 0
[12]; Postemergence, 31 g ai/ha
  Plant response rating, Groundsel: 0
[12]; Postemergence, 62 g ai/ha
  Plant response rating, Groundsel: 0
[13]; 16 g ai/ha, Preemergence
  Plant response rating, Barnyardgrass: 50
[13]; 31 g ai/ha, Preemergence
  Plant response rating, Barnyardgrass: 100
[13]; 62 g ai/ha, Preemergence
  Plant response rating, Barnyardgrass: 100
[13]; Postemergence, 8 g ai/ha
  Plant response rating, Barnyardgrass: 100
[13]; Postemergence, 16 g ai/ha
  Plant response rating, Barnyardgrass: 100
[13]; Postemergence, 31 g ai/ha
  Plant response rating, Barnyardgrass: 100
[13]; Postemergence, 62 g ai/ha
  Plant response rating, Barnyardgrass: 100

From patent US20100267561A1, “HERBICIDAL PYRIDAZINONE DERIVATIVES” (priority 2007, published 2010)
